Patent US20240309090A1, “MODULATION OF ANDROGEN SIGNALING TO INNATE IMMUNE KILLING OF PROSTATE CANCER” (Brown University, priority 2023, published 2024)

Assays:
[1] = system: AR-transduced PC3-AR and DU145 cell lines; test: Flow cytometry of HLA-E surface expression on AR-transduced PC3 and DU145; format: cell-based
From the text: To evaluate the modulation of the androgen receptor and tumor HLA-E expression, we astably transduced AR negative cell lines PC3 and DU145 with an Androgen Response Element (ARE) GFP reporter (FIG. 16H). […] Using AR+ constructed cell lines, PC3 and DU145, we sought to determine the dependence of HLA-E expression and possible modulation by AR. […] Although potential therapies targeting immune enhancement are being explored, the expression of exhaustion markers such as PD-1, NKG2A, and potential engaging ligands that diminish their cytotoxic function limits their application. Exploring these factors with new combination approaches, such as ARi and anti-NKG2A, and understanding the modulation of its targets upon treatment is key in overcoming immune-resistant scenarios, especially in prostate cancer.
PCa cells were plated at a density of 3×10^5 cells per well of a 6-well plate and adhered overnight. […] After treatment, cells were trypsinized, stained, and incubated (Cell Staining Buffer SouthernBiotech #0225-01S) with the corresponding antibody for 45-60 min at 4° C. Viability dye was added with each run. NK-92 cells and patient-derived cells were stained similarly. […]

NK-92 cells = test: NK cell viability assay (CellTiterGlo); format: cell-based; settings: NK cells alone, doses used in co-culture
Method: For NK cell viability assays, 5×10^3 cells were plated in a 96-well plate, and viability (72h) was measured using a CellTiterGlo assay.

| SMILES | HLA-E surface expression upon ARi ([1]; AR-responsive PC3-AR) | HLA-E surface expression upon ARi ([1]; AR-transduced (AR-responsive) DU145) | NK cell viability (NK-92 cells) |
| --- | --- | --- | --- |
| CC(O)c1cc(C(=O)N[C@@H](C)Cn2ccc(-c3ccc(C#N)c(Cl)c3)n2)n[nH]1 (stereo partly drawn) [darolutamide] | increased | increased | – |
| CNC(=O)c1ccc(N2C(=S)N(c3ccc(C#N)c(C(F)(F)F)c3)C(=O)C2(C)C)cc1F [enzalutamide] | – | – | noncytotoxic |
